This is an account of results in ChEMBL document CHEMBL1148101, “Structure/activity relationship of some natural monoterpenes as acaricides against Psoroptes cuniculi” (1995).

What all share (format): functional
In assay [1] the test system is Psoroptes ovis. As to the kind of experiment: Acaricidal activity against Psoroptes cuniculi at 6 uL after 24 hrs by inhalation assay.
The subject of assay [2] is Psoroptes ovis. In words: Acaricidal activity against Psoroptes cuniculi at 1 uL after 24 hrs by inhalation assay.
Assay [3] has as its system Psoroptes ovis. In words: Acaricidal activity against Psoroptes cuniculi at 0.125% dilution in physiological saline after 48 hrs by direct contact assay.
Assay [4] deals with Psoroptes ovis. In words: Acaricidal activity against Psoroptes cuniculi at 0.25% dilution in physiological saline after 48 hrs by direct contact assay.
Assay [5] has as its system Psoroptes ovis. As to the kind of experiment: Acaricidal activity against Psoroptes cuniculi at 1% dilution in physiological saline after 48 hrs by direct contact assay.
Assay [6] deals with Psoroptes ovis. In words: Acaricidal activity against Psoroptes cuniculi at 3 uL after 24 hrs by inhalation assay.
Assay [7] concerns Psoroptes ovis. As to the kind of experiment: Acaricidal activity against Psoroptes cuniculi at 36 uL after 24 hrs by inhalation assay.
The subject of assay [8] is Psoroptes ovis. As to the kind of experiment: Acaricidal activity against Psoroptes cuniculi at 18 uL after 24 hrs by inhalation assay.

Turning to `C=C(C)[C@H]1CC=C(C)CC1` [D-LIMONENE], the Activity in the assay with Psoroptes ovis [1], in the assay on Psoroptes ovis [2], in the assay with Psoroptes ovis [3], in the assay with Psoroptes ovis [4], in the assay on Psoroptes ovis [5] and in the assay with Psoroptes ovis [6] was 0% each time.

For the compound `C=CCc1ccc(OC)cc1` [ESTRAGOLE], the Activity with Psoroptes ovis [1] was found to be 5%; in the assay on Psoroptes ovis [2], 0%; with Psoroptes ovis [3], 0%; in the assay with Psoroptes ovis [4], 63.3%; in the assay on Psoroptes ovis [5] it was 100%; in the assay on Psoroptes ovis [6], 6.7%.

With `Cc1ccc(C(C)C)c(O)c1` [THYMOL], the Activity in the assay with Psoroptes ovis [7], in the assay on Psoroptes ovis [8], in the assay on Psoroptes ovis [1], in the assay with Psoroptes ovis [3], in the assay with Psoroptes ovis [4] and in the assay on Psoroptes ovis [5] was 100% each time.

On to `CC(C)=CCC/C(C)=C/CO` [GERANIOL], for which the Activity came out at 96.7% in the assay with Psoroptes ovis [1]; 95% with Psoroptes ovis [2]; 100% in the assay on Psoroptes ovis [3]; 100% in the assay on Psoroptes ovis [4]; 100% with Psoroptes ovis [5]; 93.3% in the assay with Psoroptes ovis [6].

Regarding `C=CCc1ccc(O)c(OC)c1` [EUGENOL], the Activity in the assay with Psoroptes ovis [1] is 100%; in the assay on Psoroptes ovis [2], 86.7%; in the assay with Psoroptes ovis [3], 100%; with Psoroptes ovis [4], 100%; in the assay with Psoroptes ovis [5], 100%; with Psoroptes ovis [6], 96.7%.

With `C=CC(=C)CCC=C(C)C` [MYRCENE], the Activity in the assay on Psoroptes ovis [1] was determined as 6.7%; with Psoroptes ovis [2], 0%; in the assay on Psoroptes ovis [3], 0%; in the assay on Psoroptes ovis [4], 0%; in the assay with Psoroptes ovis [5] it was 0%; with Psoroptes ovis [6], 5.2%.

For `CC(C)=CCC/C(C)=C\CO` [NEROL], the Activity came to 100% in the assay with Psoroptes ovis [1]; 36.7% with Psoroptes ovis [2]; 100% with Psoroptes ovis [3]; 98.3% with Psoroptes ovis [4]; 100% in the assay with Psoroptes ovis [5]; 83.3% in the assay on Psoroptes ovis [6].

Regarding `C=CC(C)(O)CCC=C(C)C` (stereo not drawn) [LINALOOL], the Activity is given as 100% in the assay with Psoroptes ovis [1]; 36.7% in the assay on Psoroptes ovis [2]; 97% with Psoroptes ovis [3]; 100% with Psoroptes ovis [4]; 100% in the assay on Psoroptes ovis [5]; 75% in the assay on Psoroptes ovis [6].

`CC1=CCC(O)(C(C)C)CC1` (stereo not drawn) [TERPINEOL]: the Activity in the assay on Psoroptes ovis [1] was 100%; with Psoroptes ovis [2] it was 5%; in the assay with Psoroptes ovis [3], 100%; in the assay with Psoroptes ovis [4], 100%; in the assay on Psoroptes ovis [5], 100%; with Psoroptes ovis [6], 41.7%.

In the case of `CC1=CCC(C(C)C)=CC1` [GAMMA-TERPINENE], the Activity in the assay on Psoroptes ovis [1], with Psoroptes ovis [2], in the assay with Psoroptes ovis [3], in the assay on Psoroptes ovis [4], in the assay with Psoroptes ovis [5] and with Psoroptes ovis [6] was 0% each time.

In the case of `CC1CCC(C(C)C)C(O)C1` (stereo not drawn) [MENTHOL], the Activity with Psoroptes ovis [7], in the assay with Psoroptes ovis [8], in the assay with Psoroptes ovis [1], with Psoroptes ovis [3], in the assay on Psoroptes ovis [4] and in the assay with Psoroptes ovis [5] was 100% in each case.

As to `CC1=CC[C@@H](C(C)(C)O)CC1` [ALPHA-TERPINEOL], the Activity in the assay on Psoroptes ovis [1] amounted to 98.3%; in the assay with Psoroptes ovis [2], 73.3%; with Psoroptes ovis [3], 100%; in the assay with Psoroptes ovis [4], 100%; with Psoroptes ovis [5], 100%; with Psoroptes ovis [6] it was 98.3%.

Turning to `C=CC(C)(CCC=C(C)C)OC(C)=O` (stereo not drawn) [LINALYL ACETATE], the Activity in the assay on Psoroptes ovis [1] is recorded as 20%; with Psoroptes ovis [2], 0%; in the assay with Psoroptes ovis [3] it was 5%; with Psoroptes ovis [4], 35%; with Psoroptes ovis [5] it was 40%; in the assay with Psoroptes ovis [6], 13.3%.
